Tests used:
[1] = Solubility data in organic common solvents; assay type: physicochemical; conditions: comparison in words
Source text: Solubility data were obtained for compounds of the present teachings in various organic common solvents (Table 3). N,N′-bis(4-n-octyl)-1,7-dicyanoperylene-3,4:9,10-bis(dicarboxiamide) (PDI8-CN2) was included as a comparative compound.

[2] = Solubility of isolated product in common organic solvents (noted at work-up); assay type: physicochemical; conditions: product after cyanation
Description: A mixture of N,N′-bis[4-(2′,3′,4′,5′,6′-pentafluorobiphenyl)]-1,7-dibromoperylene-3,4:9,10-bis(dicarboxiamide) (0.21 g, 0.203 mmol) and CuCN (0.33 g, 3.69 mmol) in DMF (10 mL) was deaerated and placed under nitrogen. The reaction mixture was heated at 150° C. for 9 hours. After cooling to room temperature, the precipitate was collected by filtration, washed several times with MeOH, and dried overnight. The product (0.11 g, 0.12 mmol, 59.1% yield) was insoluble in common organic solvents and it was gradient-sublimed.
A mixture of N,N′-bis(4-benzoylphenyl)-1,7-dibromoperylene-3,4:9,10-bis(dicarboxiamide) (0.60 g, 0.66 mmol) and CuCN (1.07 g, 12.0 mmol) in DMF (27 mL) was deaerated and placed under nitrogen. The reaction mixture was heated at 150° C. for 6 hours. After cooling to room temperature, the precipitate was collected by filtration, washed several times with MeOH, and dried overnight. The crude solid (0.42 g) was insoluble in common organic solvents.

Molecule | solubility compared to PDI8-CN2 and the other compounds of Table 3 [1] | solubility in common organic solvents [2]
CC(C)=CCC[C@H](C)CCN1C(=O)c2ccc3c4c(C#N)cc5c6c(ccc(c7c(C#N)cc(c2c37)C1=O)c64)C(=O)N(CC[C@@H](C)CCC=C(C)C)C5=O [PDICitr-CN2, N,N′-bis[(3S)-3,7-dimethyl-6-octenyl]-1,7-dicyanoperylene-3,4:9,10-bis(dicarboxiamide)] | unexpected increase in solubility | 
N#Cc1cc2c3c(ccc4c5c(C#N)cc6c7c(ccc(c1c34)c75)C(=O)N(c1ccc(C(=O)c3ccccc3)cc1)C6=O)C(=O)N(c1ccc(C(=O)c3ccccc3)cc1)C2=O [PDIPhCOPh-CN2, N,N′-bis(4-n-benzoylphenyl)-1,7-dicyanoperylene-3,4:9,10-bis(dicarboxiamide)] |  | insoluble
N,N′-bis[4-(2′,3′,4′,5′,6′-pentafluorobiphenyl)]-1,7-dibromoperylene-3,4:9,10-bis(dicarboxiamide) [PDIPhPh^F-CN2] |  | insoluble
